The source of these data is patent publication US20070191462A1, “Combination of A 5-HT(1) Receptor Agonist and an Alpha-2-Delta Ligand for the Treatment of Migraine” (Pfizer Limited, priority 2004, published 2007).

This assay has as its system 2nd sensory neuron in the trigeminal nucleus caudalis (TNC). In words: rat model of migraine: sensitization induced by inflammatory soup applied to the dura, monitored by electrophysiology in the TNC. Format: in vivo. The note with it: eletriptan given 3 hours after inflammatory soup on the dura; observed as late as 5.5 hours after sensitization.

As for `CN1CCC[C@@H]1Cc1c[nH]c2ccc(CCS(=O)(=O)c3ccccc3)cc12` [eletriptan], the “reversal of sensitization of responses to sensory stimuli (brush and pin)” value was “did not reverse the sensitization”.
